Data on 12 compounds can be found in publication PMC8431481, “Peptide Derivatives of the Zonulin Inhibitor Larazotide (AT1001) as Potential Anti SARS-CoV-2: Molecular Modelling, Synthesis and Bioactivity Evaluation” (International Journal of Molecular Sciences, 2021).

The subject of data set [1] is human cytomegalovirus (HCMV) strain AD-169. The note with it: read-out: Antiviral Activity (EC50) AD-169 Strain; HEL cells, virus input 100 CCID50.
For data set [2], the target named is T1, recombinant SARS-CoV-2 M^pro (Severe acute respiratory syndrome coronavirus 2, UniProt P0DTD1).
T1 construct: The virus enzyme, called 3CLpro or main protease (M^pro), is essential for viral replication; purchased Proteros
Format: biochemical. Conditions: relative to concentration range 0.1–1 µM.

In data set [3] the test system is varicella-zoster virus (VZV) wild-type strain Oka. Conditions: read-out: Antiviral Activity (EC50) TK+ VZV Strain OKA; HEL cells, virus input 20 PFU.
Data set [4] deals with human embryonic lung (HEL) fibroblasts. Kind of data set: Cytotoxicity, cell morphology (MCC) in HEL cells.
Data set [5] has as its system human cytomegalovirus (HCMV) strain Davis. The note with it: read-out: Antiviral Activity (EC50) Davis Strain; HEL cells, virus input 100 CCID50.
For data set [6], the system named is thymidine kinase deficient (TK−) VZV strain 07−1. The note with it: read-out: Antiviral Activity (EC50) TK-VZV Strain 07–1; HEL cells, virus input 20 PFU.
In data set [7] the test system is SARS-CoV-2 clinical strain UC-1074. Conditions: for EC50: clinical strain UC-1074, 24 h; for activity against SARS-CoV-2 (in words): Vero cells, strains UC-1074 and UC-1075.
A short description of the next data set: in vitro. The note with it: African green monkey.
For data set [8], the system named is SARS-CoV-2 clinical strain UC-1075. The note with it: clinical strain UC-1075, 24 h.
In data set [9] the test system is varicella-zoster virus (VZV) wild-type strain Oka. Kind of data set: microbe, parasite or virus in culture. The note with it: Human alphaherpesvirus 3, HEL, read-out: Antiviral Activity (EC50) TK+ VZV Strain OKA.
Data set [10] deals with human embryonic lung (HEL) fibroblasts. Kind of data set: Cytostatic activity, cell growth (CC50) in HEL cells. Conditions: read-out: Cytotoxicity Cell Growth (CC50); HEL cells, Table 3 (VZV tests).
Experiment in data set [11]: as above
The note with it: human, HEL 299 human embryonic lung fibroblasts.

The subject of data set [12] is human cytomegalovirus (HCMV) strain AD-169. Kind of data set: microbe, parasite or virus in culture. Conditions: Human betaherpesvirus 5, AD169, HEL, read-out: Antiviral Activity (EC50) AD-169 Strain.
Data set [13] relates to human cytomegalovirus (HCMV) strain Davis. The data set is described as follows: microbe, parasite or virus in culture. Conditions: Human betaherpesvirus 5, HEL, read-out: Antiviral Activity (EC50) Davis Strain.
The test system of a further data set is SARS-CoV-2. The note with it: read-out: EC50 (reported value); cited from earlier work.
For data set [14], the system named is SARS-CoV-2 clinical strain UC-1075. The data set is described as follows: microbe, parasite or virus in culture. Conditions: Severe acute respiratory syndrome coronavirus 2, UC1075, Vero, 120 h, read-out: Antiviral Activity (EC50) UC-1075.
Data set [15] concerns SARS-CoV-2 clinical strain UC-1074. The data set is described as follows: microbe, parasite or virus in culture. Conditions: Severe acute respiratory syndrome coronavirus 2, UC1074, Vero, 120 h, read-out: Antiviral Activity (EC50) UC-1074.

Each structure is given as a SMILES string. Where two headings read alike, the source gives them in different places. Where a SMILES comes first, the peptide text is derived from it. The star is where a group is joined. Piv = CC(C)(C)C(=O)*

As usually defined, the EC50 is the concentration giving half of the maximal effect. One may read the Inhibition as the change of the read-out against control, counted positive when it falls.

Take `CC(C)C[C@H](NC(=O)[C@@H](NC(=O)CNC(=O)CN)C(C)C)C(=O)N[C@H](C(=O)N[C@@H](CCC(N)=O)C(=O)N1CCC[C@H]1C(=O)NCC(=O)O)C(C)C` [AT1001 (1), Larazotide acetate, reference compound] (H-GGVLVQPG-OH): the EC50 is over 20 µM in data set [1]; 44.1 µM in data set [3]; over 20 µM in [5]; 59.1 µM in [6]; over 20 µM in [7]; over 20 µM in [8]. The “Cytotoxicity Cell Morphology (MCC)” value with Vero cells is listed as 100 µM; in data set [4] (Table 2 (HCMV tests)), at least 100 µM; in [4] (Table 3 (VZV tests)), at least 100 µM. Also, in data set [2], the Inhibition worked out at 27.7 ± 0.2%. The compound further displayed a CC50 in “in vitro” of 82.5 ± 6.2 µM.

Consider `Nc1nc2c(ncn2COCCO)c(=O)[nH]1` [Aciclovir], for which the EC50 in data set [9] worked out at 8.39 µM.

In the case of `O=c1[nH]c(=O)n([C@H]2C[C@H](O)[C@@H](CO)O2)cc1/C=C/Br` [Birivudine, reference compound], in data set [10], the CC50 was over 300 µM. Further, the EC50 was 0.23 ± 0.04 µM in data set [3] and 2.13 µM in data set [6]. Moreover, in [4] (Table 3 (VZV tests)), the “Cytotoxicity Cell Morphology (MCC)” value is given as over 300.3 µM.

`Nc1ccn(C[C@@H](CO)OCP(=O)(O)O)c(=O)n1` [Cidofovir] returned a CC50 at 3 days in data set [11] of 159 ± 76.5 µM. Moreover, the “Cytotoxicity Cell Morphology (MCC)” value in data set [4] (Table 2 (HCMV tests)) is reported as at least 317 µM. In addition, the concentration giving a half-maximal response (EC50) was 1270 ± 180 nM in data set [12] and 670 ± 490 nM in data set [13].

On to `Nc1nc(O)c2ncn(COC(CO)CO)c2n1` [Ganciclovir], for which the CC50 at 3 days in data set [11] was found to be 350 µM. The “Cytotoxicity Cell Morphology (MCC)” value in data set [4] (Table 2 (HCMV tests)) is on record as at least 394 µM. In addition, the EC50 in data set [12] was determined as 2560 ± 230 nM; in data set [13] it was 1180 nM.

On to `CC(=O)NCC(=O)NCC(=O)N[C@H](C(=O)N[C@@H](CC(C)C)C(=O)N[C@H](C(=O)N[C@@H](CCC(N)=O)C(=O)N1CCC[C@H]1C(=O)NCC(N)=O)C(C)C)C(C)C` [Peptide 2] (Ac-GGVLVQPG-NH2), for which the EC50 in [1] was over 20 µM; in [3], 50.1 µM; in data set [5], over 20 µM; in data set [6], 48.4 µM; in data set [8] it was over 20 µM. The “Cytotoxicity Cell Morphology (MCC)” value with Vero cells (Vero cells) is 100 µM; in data set [4] (Table 2 (HCMV tests)) it was at least 20 µM; in data set [4] (Table 3 (VZV tests)) it was over 100 µM. The Inhibition in data set [2] is recorded as 27.1 ± 0.5%. For the same compound, the CC50 in “in vitro” was 83 ± 17 µM.

With `CNC(=O)CNC(=O)[C@@H]1CCCN1C(=O)[C@H](CCC(N)=O)NC(=O)[C@@H](NC(=O)[C@H](CC(C)C)NC(=O)[C@@H](NC(=O)CNC(=O)CNC(C)=O)C(C)C)C(C)C` [Peptide 3] (Ac-GGVLVQPG-NHMe), the EC50 in [1] is over 20 µM; in data set [3] it was 58.1 µM; in data set [5], over 100 µM; in data set [6] it was 81.1 µM; in data set [7], over 20 µM; in data set [8] it was over 20 µM. For the same compound, the “Cytotoxicity Cell Morphology (MCC)” value in the data set on Vero cells (Vero cells) is on record as 100 µM; in data set [4] (Table 2 (HCMV tests)), at least 20 µM; in data set [4] (Table 3 (VZV tests)), over 100 µM. For the same compound, the Inhibition in data set [2] is 27.4 ± 1.1%. In addition, the “activity against SARS-CoV-2 (in words)” value in [7] is on record as “negligible activity”. In “in vitro”, this compound came in with a CC50 of 81.8 ± 2.1 µM.

Regarding `CNC(=O)CNC(=O)[C@@H]1CCCN1C(=O)[C@H](CCC(N)=O)NC(=O)[C@@H](NC(=O)[C@H](CC(C)C)NC(=O)[C@@H](NC(=O)CNC(=O)CNC(=O)C(C)(C)C)C(C)C)C(C)C` [Peptide 4] (Piv-GGVLVQPG-NHMe), the EC50 in data set [1] is over 20 µM; in data set [3] it was 78.2 µM; in data set [5] it was 100 µM; in data set [6], over 100 µM; in data set [7] it was at least 20 µM; in [8], over 20 µM. For the same compound, the “Cytotoxicity Cell Morphology (MCC)” value in the data set on Vero cells (Vero cells) is on record as 100 µM; in [4] (Table 2 (HCMV tests)), 100 µM; in data set [4] (Table 3 (VZV tests)), at least 100 µM. Moreover, in [2], the Inhibition came to 26.2 ± 0.3%. The compound also registered a CC50 in “in vitro” of 74.9 ± 4.9 µM.

Regarding `CNC(=O)[C@H](CCC(N)=O)NC(=O)[C@@H](NC(=O)[C@H](CC(C)C)NC(=O)[C@@H](NC(=O)CNC(C)=O)C(C)C)C(C)C` [Peptide 5, Ac-GVLVQ-NHCH3] (Ac-GVLVQ-NHMe), the EC50 in data set [1] was over 20 µM; in data set [3], 59.8 µM; in data set [5], over 100 µM; in data set [6], over 100 µM; in [7], over 20 µM; in data set [8] it was over 20 µM. Also, the entries for the “Cytotoxicity Cell Morphology (MCC)” value (in the data set with Vero cells (Vero cells); in [4] (Table 2 (HCMV tests)); in [4] (Table 3 (VZV tests))) were 100 µM, at least 100 µM and over 100 µM, respectively. For the same compound, in data set [2], the Inhibition was determined as 27.0 ± 1.1%. Also, the “activity against SARS-CoV-2 (in words)” value in data set [7] is “negligible activity”. Also, the CC50 in “in vitro” amounted to 75 ± 2.2 µM.

In the case of `CNC(=O)[C@@H](NC(=O)[C@H](CC(C)C)NC(=O)[C@@H](NC(=O)CNC(C)=O)C(C)C)C(C)C` [Peptide 6, Ac-GVLV-NHCH3] (Ac-GVLV-NHMe), the EC50 in data set [1] is over 4 µM; in [3] it was over 20 µM; in data set [5] it was over 20 µM; in [6] it was over 20 µM; in data set [7], at least 20 µM; in [8], over 20 µM. The “Cytotoxicity Cell Morphology (MCC)” value in the data set on Vero cells (Vero cells) is 100 µM; in data set [4] (Table 2 (HCMV tests)), at least 20 µM; in [4] (Table 3 (VZV tests)), 100 µM. The Inhibition in data set [2] was 25.0 ± 0.5%. The CC50 in the data set “in vitro” amounted to 77.4 ± 0.7 µM.

On to `Cc1cc(C(=O)NC(C)C(=O)NC(C(=O)NC(CC(C)C)C(=O)NC(C=CC(=O)OCc2ccccc2)CC2CCNC2=O)C(C)C)no1` (stereo not shown) [Peptide N3], for which, in the data set with SARS-CoV-2, the EC50 is 16.8 ± 1.7 µM.

`CCC(CC)COC(=O)[C@H](C)N[P@](=O)(OC[C@H]1O[C@@](C#N)(c2ccc3c(N)ncnn23)[C@H](O)[C@@H]1O)Oc1ccccc1` [Remdesivir, reference compound]: in the data set on Vero cells (Vero cells), the “Cytotoxicity Cell Morphology (MCC)” value was 100 µM. Also, the figures for the EC50 in data set [14] and in [15] were 1060 ± 440 nM and 890 ± 440 nM, respectively. Also, the CC50 in “in vitro” came to 70.6 ± 4.9 µM.
